Laboratory results as given in ChEMBL document CHEMBL6087390, “Pyridine and Pyrimidine hybrids as privileged scaffolds in antimalarial drug discovery: A recent development” (Bioorg Med Chem Lett, 2024).
Values after ≈ are worked out from the molar mass of the structure shown. Each block holds one compound with its values, some of them ahead of it.

What was measured:
Plasmodium falciparum [1] = experiment: microbe, parasite or virus in culture; details: 3D7, 48 h
Plasmodium falciparum [2] = assay type: functional, organism-based; details: W2
Plasmodium falciparum [3] = experiment: microbe, parasite or virus in culture; details: 3D7
Plasmodium falciparum [4] = experiment: Antiplasmodial activity against multidrug resistant Plasmodium falciparum K1 assessed as reduction in parasite growth by [3H]-hypoxanthine incorporation assay; assay type: functional, organism-based
HepG2 [5] = experiment: Cytotoxicity against human HepG2 cells assessed as reduction in cell viability measured for 48 hrs by MTT assay; assay type: functional
Plasmodium falciparum [6] = experiment: Antimalarial activity against Plasmodium falciparum 3D7 assessed as reduction in malarial growth measured after 48 hrs by SYBR green dye based analysis; assay type: functional, organism-based; details: 3D7, 48 h
Plasmodium falciparum [7] = experiment: Antimalarial activity against Plasmodium falciparum RKL9; assay type: functional, organism-based
Plasmodium falciparum [8] = experiment: Antiplasmodial activity against Plasmodium falciparum K1; assay type: functional, organism-based
[9] = Cytotoxicity against human MRC5 cells assessed as inhibition of cell growth incubated for 72 hrs by MTT assay; assay type: toxicity, cell-based
HepG2 [10] = experiment: Cytotoxicity against human HepG2 cells assessed as reduction in cell viability measured for 48 hrs by SRB assay; assay type: functional
Plasmodium falciparum [11] = experiment: Antiplasmodial activity against Plasmodium falciparum Dd2 assessed as reduction in parasite growth measured after 72 hrs by SYBR Green 1 staining based assay; assay type: functional, organism-based; details: Dd2, 72 h
Plasmodium falciparum [12] = experiment: microbe, parasite or virus in culture; details: 3D7, 72 h
[13] = Cytotoxicity against african green monkey Vero cells assessed as cell viability measured after 48 hrs by MTT assay; assay type: toxicity, cell-based, Chlorocebus sabaeus; details: chlorocebus sabaeus, time 48 hrs
Plasmodium falciparum [14] = experiment: Antimalarial activity against CQ-resistant Plasmodium falciparum Dd2; assay type: functional, organism-based

IC50 (Plasmodium falciparum [1]): 1.84 µg/mL (≈ 3.82 µM)
SMILES: Cc1ccc(-c2cc(-c3c(C)nn(-c4ccccc4)c3-n3ccnc3)n3c(n2)nc2ccccc23)cc1

SMILES: Cc1ccc(-n2ncc3c(NCCCCN)ncnc32)cc1
IC50 (Plasmodium falciparum [2]): 18.2 µM

IC50 (Plasmodium falciparum [3]): 62 µM
SMILES: COc1ccc(-n2cc(-c3cncc4ccccc34)nn2)cn1

SMILES: CCc1ccccc1N(C)C(=O)C(c1cncnc1)N(Cc1cccc(C(F)(F)F)c1)C1CC1 (stereo not drawn)
EC50 (Plasmodium falciparum [4]): 0.57 µM | CC50 (HepG2 [5]): > 30 µM

IC50 (Plasmodium falciparum [7]): 1.7 µg/mL (≈ 4.19 µM)
SMILES: Cc1ccc(-c2nn(-c3ccccc3)cc2/C=C/c2nnc(-c3ccncc3)o2)cc1
IC50 (Plasmodium falciparum [6]): 0.4 µg/mL

IC50 (Plasmodium falciparum [8]): 8 µM
SMILES: Cc1cccc(-n2nc3ccc(S(=O)(=O)N4CCC(C)CC4)cn3c2=O)c1
IC50 at 72 h [9]: > 64 µM

SMILES: CCCN(C(C(=O)N(C)c1ccccc1C)c1cccnc1)C1(c2cccc(C(F)(F)F)c2)CC1 (stereo not drawn)
CC50 (HepG2 [10]): > 15 µM

SMILES: O=C(C(c1cccnc1)N(Cc1cccc(C(F)(F)F)c1)C1CC1)N1CCCCC1 (stereo not drawn)
CC50 (HepG2 [10]): > 20 µM

SMILES: Cc1ccccc1-n1nnnc1C(c1cncnc1)N(Cc1cc(F)cc(C(F)(F)F)c1)C1CC1 (stereo not drawn)
EC50 (Plasmodium falciparum [11]): 1.2 µM | CC50 (HepG2 [10]): 36 µM

SMILES: C[C@H]1[C@H](OC(=O)CCC(=O)O)O[C@@H]2O[C@@]3(C)CC[C@H]4[C@H](C)CC[C@@H]1[C@@]24OO3 [ARTESUNATE]
IC50 (Plasmodium falciparum [12]): 1 µM

SMILES: Cc1ccccc1N(C)C(=O)C(c1cccnc1)N(Cc1cccc(OC(F)(F)F)c1)C1CC1 (stereo not drawn)
CC50 (HepG2 [10]): > 30 µM

SMILES: COc1ccc2cc3[n+](cc2c1OCc1cn(-c2ccc(S(=O)(=O)Nc4nc(C)cc(C)n4)cc2)nn1)CCc1cc2c(cc1-3)OCO2.[Cl-]
IC50 (Plasmodium falciparum [6]): 4 µg/mL

SMILES: Cc1cc(C)nc(NS(=O)(=O)c2ccc(-n3cc(COc4cc5oc(=O)cc(C)c5cc4Cl)nn3)cc2)n1
IC50 (Plasmodium falciparum [6]): 8.96 µM

SMILES: Cc1ccccc1N(C)C(=O)C(c1cccnc1)N(Cc1cccc(C(F)(F)F)c1)C1CC1 (stereo not drawn)
CC50 (HepG2 [10]): > 20 µM

IC50 (Plasmodium falciparum [7]): 6.1 µg/mL (≈ 12.8 µM) | IC50 (Plasmodium falciparum [1]): 9.9 µg/mL (≈ 20.8 µM)
SMILES: COc1cc(-c2cc(-c3cc(Cl)sc3Cl)nc(S)n2)ccc1OCc1ccccc1

IC50 (Plasmodium falciparum [3]): 1 µg/mL
SMILES: COc1ccc2cc3[n+](cc2c1OCc1cn(-c2ccc(S(=O)(=O)N4CCN(c5ccccn5)CC4)cc2)nn1)CCc1cc2c(cc1-3)OCO2.[Cl-]

SMILES: COc1ncnc(NS(=O)(=O)c2ccc(N)cc2)c1OC [SULFADOXINE]
IC50 (Plasmodium falciparum [2]): 15 µM

IC50 (Plasmodium falciparum [3]): 1.48 µg/mL
SMILES: Cc1n[nH]c2c1C(c1ccc(F)cc1)c1c(nc3oc(=O)c(C#N)c(N)c3c1N)O2 (stereo not drawn)

IC50 (Plasmodium falciparum [3]): 14.5 µM
SMILES: O=C(N/N=C/c1cn(-c2ccc(Cl)cc2)nn1)c1ccncc1

IC50 (Plasmodium falciparum [3]): 48.5 µg/mL
SMILES: O=S(=O)(c1ccc(-n2cc(COc3ccccc3)nn2)cc1)N1CCN(c2ccccn2)CC1

IC50 (Plasmodium falciparum [1]): 0.03 µg/mL (≈ 0.0618 µM)
SMILES: Cc1nn(-c2ccccc2)c(-n2ccnc2)c1-c1cc(-c2ccc(F)cc2)nc2nc3ccccc3n12

SMILES: CC(C)=CCC1=C(OCc2cn(Cc3ccccn3)nn2)C(=O)c2ccccc2C1=O
CC50 at 48 h [13]: 658 µM

SMILES: COc1ccc2nc(/C=C/c3ccncc3)ccc2c1
IC50 (Plasmodium falciparum [14]): > 10 µM

IC50 (Plasmodium falciparum [7]): 2 µg/mL (≈ 5.12 µM) | IC50 (Plasmodium falciparum [1]): 5.1 µg/mL (≈ 13.1 µM)
SMILES: COc1ccc(-c2cc(-c3ccco3)nc(S)n2)cc1OCc1ccccc1

IC50 (Plasmodium falciparum [7]): 2.4 µg/mL (≈ 5.24 µM) | IC50 (Plasmodium falciparum [1]): 5.4 µg/mL (≈ 11.8 µM)
SMILES: COc1ccc(-c2cc(-c3cc(Cl)sc3Cl)nc(N)n2)cc1OCc1ccccc1

SMILES: COc1ccc2nc(/C=C/c3ccncc3)cc(N3CCCC3)c2c1
IC50 (Plasmodium falciparum [14]): 0.36 µM

IC50 (Plasmodium falciparum [3]): > 50 µg/mL
SMILES: O=S(=O)(c1ccc(-n2cc(COc3ccc(Cl)cc3)nn2)cc1)N1CCN(c2ccccn2)CC1

SMILES: NCCCCNc1ncnc2c1cnn2-c1ccc(F)cc1
IC50 (Plasmodium falciparum [2]): 21.6 µM

IC50 (Plasmodium falciparum [7]): 2.9 µg/mL (≈ 6.33 µM) | IC50 (Plasmodium falciparum [1]): 6.3 µg/mL (≈ 13.7 µM)
SMILES: COc1cc(-c2cc(-c3cc(Cl)sc3Cl)nc(N)n2)ccc1OCc1ccccc1

IC50 (Plasmodium falciparum [3]): 0.004 µM
SMILES: CC/C=C\C/C=C\C/C=C\C/C=C\C/C=C\C/C=C\CCC(=O)O [DOCONEXENT]

SMILES: Cc1cc(C)nc(NS(=O)(=O)c2ccc(-n3cc(COc4ccc5c(C)cc(=O)oc5c4)nn3)cc2)n1
IC50 (Plasmodium falciparum [6]): 20.5 µM

SMILES: Cc1cc(C)nc(NS(=O)(=O)c2ccc(-n3cc(COc4ccc5ccc(=O)oc5c4)nn3)cc2)n1
IC50 (Plasmodium falciparum [6]): > 79.4 µM

IC50 (Plasmodium falciparum [1]): 0.07 µg/mL (≈ 0.153 µM)
SMILES: Cc1nn(-c2ccccc2)c(-n2ccnc2)c1-c1cc(-c2cc[nH]c2)nc2nc3ccccc3n12

IC50 (Plasmodium falciparum [3]): 23.2 µM
SMILES: COc1ccc(-n2cc(/C=N/NC(=O)c3ccncc3)nn2)cc1

SMILES: CCCN(C(c1cncnc1)c1nnnn1-c1ccccc1C)C1(c2cccc(C(F)(F)F)c2)CC1 (stereo not drawn)
CC50 (HepG2 [10]): 13 µM

IC50 (Plasmodium falciparum [7]): 3.2 µg/mL (≈ 8.57 µM) | IC50 (Plasmodium falciparum [1]): 4.4 µg/mL (≈ 11.8 µM)
SMILES: COc1ccc(-c2cc(-c3ccco3)nc(N)n2)cc1OCc1ccccc1

SMILES: Cc1ccc(S(=O)(=O)NCCCCNc2ncnc3c2cnn3-c2ccc(F)cc2)cc1
IC50 (Plasmodium falciparum [2]): 5.13 µM

IC50 (Plasmodium falciparum [1]): 0.04 µg/mL (≈ 0.0822 µM)
SMILES: Cc1nn(-c2ccccc2)c(-n2cncn2)c1-c1cc(-c2ccc(F)cc2)nc2nc3ccccc3n12

SMILES: CC(C)=CCC1=C(OCc2cn(-c3cccnc3)nn2)C(=O)c2ccccc2C1=O
CC50 at 48 h [13]: 1030 µM

IC50 (Plasmodium falciparum [3]): 73.5 µg/mL
SMILES: O=c1cc(OCc2cn(-c3ccc(S(=O)(=O)N4CCN(c5ccccn5)CC4)cc3)nn2)c2ccccc2o1

SMILES: CN(C(=O)C(c1cncnc1)N(Cc1cccc(C(F)(F)F)c1)C1CC1)c1ccccc1 (stereo not drawn)
EC50 (Plasmodium falciparum [4]): 2 µM | CC50 (HepG2 [5]): > 30 µM

IC50 (Plasmodium falciparum [8]): 2.24 µM
SMILES: O=c1n(-c2cccc(Cl)c2)nc2c(S(=O)(=O)N3CCCCC3)cccn12
IC50 at 72 h [9]: > 64 µM
